Measurements reported in patent publication US20230072949A1, “NANOMATERIALS FOR TARGETED TREATMENT AND IMAGING OF ANEURYSMAL MICROENVIRONMENT” (The University of North Carolina at Chapel Hill, priority 2020, published 2023).
Where a SMILES comes first, the peptide text is derived from it. Where no end group is shown, it is not given here. The star is where a group is joined. Palmitoyl = CCCCCCCCCCCCCCCC(=O)*; Lauroyl = CCCCCCCCCCCC(=O)*; C16 = C16 lipid tail

Tests used:
[1] = test system: aneurysmal aorta (CaCl2-induced AAA of the infrarenal aorta); test: Targeting of PA nanomaterials to aneurysmal tissue in CaCl2-induced AAA rats (LSFM / fluorescence microscopy after intravenous injection); format: in vivo, Sprague Dawley rats; details: for targeting to the rat aorta (LSFM images): 2 hours post PA injection (FIG. 8A); for Targeting Capability: Table 1, aneurysm targeting
From the text: We also validated the CaCl2 model, by inducing aneurysms in 10 male and 7 female Sprague Dawley rats. We measured aortic diameter before AAA induction and then at days 14, 21, and 28 after induction using ultrasound. At day 35, we performed an endpoint surgery and measured the diameter of the aorta, perfusion-fixed the rats, and collected tissue. Tissue was cryo-sectioned and assayed for elastin (Verhoeff-Van Gieson (VVG)), calcium (Von Kossa), and MMP-2 (IF) staining. […] There was no significant difference between male and female rats in aortic dilation (data not shown). Further, we found both elastin fragmentation, and robust MMP-2 protein staining in the aortas exposed to CaCl2, with negligible amounts of fragmentation and MMP-2 in the suprarenal aortas from the same animals (FIG. 2 C+F). Fragmentation of elastin and MMP-2 corresponded to regions of the aorta that were calcified (FIG. 2E).
To evaluate the targeting specificity of the targeted PA nanomaterials, we induced AAA in the infrarenal aorta of Sprague Dawley rats by exposure to CaCl2. After 35 days, a period consistent with aneurysm formation, the targeted PA nanomaterials was injected intravenously. We assessed targeting specificity and duration to aneurysmal sites as well as to all vital organs. We also determined optimal concentration, dose, and co-assembly ratios. Controls included rats injected with saline alone, non-targeted PA nanomaterials, and PA nanomaterials bearing a scrambled targeting sequence.
Experimental Design. Dosage and targeting specificity. To evaluate specific localization of targeted PA nanomaterials, AAA is induced in the infrarenal aorta of male and female Sprague Dawley rats by exposure to CaCl2) (FIG. 4 and FIG. 5A). The features of human AAA can be recapitulated in rodent models. Here, we developed and validated a surgical model of AAA, where CaCl2 is applied to the periadventitial surface of the aorta.^4, 18 While no single model perfectly replicates human AAA, similarities between CaCl2-induced AAA and human aneurysms makes this a useful model. […]
Aortic dilation is measured using ultrasound imaging. […]
Targeting specificity of both MMP-2-targeting and elastin-targeting PAs to the aneurysmal aorta, non-aneurysmal suprarenal aorta, and all vital organs is assessed using in vivo imaging system (IVIS), light-sheet fluorescence microscopy (LSFM), and immunofluorescence (IF) microscopy. […] Targeting specificity was determined by measuring pixel count above an assigned threshold. Further, MMP-2 was quantified using IF microscopy and correlated to the amount of MMP-2-targeting PA. […] With this experiment, we confirmed that targeted PA nanomaterials localized to the site of interest and optimal dose for duration studies was determined. […]

[2] = Organ distribution of PA (kidney, liver, lung, spleen, aorta) by LSFM; format: in vivo, Sprague Dawley rats; details: 2 hours post injection (FIG. 11)
Protocol: (A) Organ distribution of MMP-2 targeting PA 1 in the kidney, liver, lung, spleen, and aorta of Sprague Dawley rats 2 hours post injection. White color represents autofluorescence and red to yellow represents TAMRA-labeled PA. (B) Plotted mean data of the ratio of PA to tissue in each organ.
Targeting specificity of both MMP-2-targeting and elastin-targeting PAs to the aneurysmal aorta, non-aneurysmal suprarenal aorta, and all vital organs is assessed using in vivo imaging system (IVIS), light-sheet fluorescence microscopy (LSFM), and immunofluorescence (IF) microscopy. […] Targeting specificity was determined by measuring pixel count above an assigned threshold. Further, MMP-2 was quantified using IF microscopy and correlated to the amount of MMP-2-targeting PA. When no adverse side effects occurred, the dosage was increased until we achieved saturation of targeting. With this experiment, we confirmed that targeted PA nanomaterials localized to the site of interest and optimal dose for duration studies was determined. Results are shown for 2 hours post PA injection of either 2.5 mg, 5 mg, or 10 mg of MMP-2-targeting PA 1. A higher PA volume to tissue volume ratio is seen in the 5 mg and 10 mg dose than the 2.5 mg dose. The 5 mg dose was selected for further investigation. […]

organ distribution (kidney, liver, lung, spleen, aorta) ([2]; listed as MMP-2-targeting PA 1) | organ distribution (kidney, liver, lung, spleen, aorta) ([2]; listed as MMP-2 targeting PA) | Molecule | targeting to the rat aorta (LSFM images) [1] | Targeting Capability [1]
– | – | (C16)VVAAEEGGLWMDWVTEKNIN (C16-VVAAEEGGLWMDWVTEKNIN) [MTI-MMP_LWM, MT1-MMP-targeting peptide amphiphile] | targeting to the rat aorta | Targets aneurysm
predominantly localized to the aorta | predominantly localizes to the aorta | CCCCCCCCCCCCCCCC(=O)N[C@H](C(=O)N[C@H](C(=O)N[C@@H](C)C(=O)N[C@@H](C)C(=O)N[C@@H](CCC(=O)O)C(=O)N[C@@H](CCC(=O)O)C(=O)NCC(=O)NCC(=O)N[C@@H](CCCNC(=N)N)C(=O)NCC(=O)N[C@@H](C)C(=O)N[C@@H](C)C(=O)N1CCC[C@H]1C(=O)N1CCC[C@H]1C(=O)N[C@@H](CCCCN)C(=O)N[C@@H](CCC(N)=O)C(=O)N[C@@H](CCC(=O)O)C(=O)N[C@@H](Cc1ccccc1)C(=O)N[C@@H](CC(C)C)C(=O)N[C@@H](CC(=O)O)C(=O)N[C@H](C(=O)N[C@@H](CCC(=O)O)C(=O)O)[C@@H](C)CC)C(C)C)C(C)C [MMP-2_RGA] (Palmitoyl-VVAAEEGGRGAAPPKQEFLDIE-OH; N-terminus and C-terminus assumed) | – | –
– | – | PLSEWRASYNGGEEAAVVK(C12) (PLSEWRASYNGGEEAAVVK(Lauroyl)) [Fragmented Elastin_PLS, fragmented elastin-targeting peptide amphiphile on E2A2V2K(C12) diluent backbone] | targeting to the rat aorta | Does not target
